Holding throughout (format): cell-based
One assay concerns the target T1, Nav1.7 (Homo sapiens, UniProt Q15858).
T1 construct: gene SCN9A
Put plainly: whole-cell voltage-clamp in CHO cells stably expressing hNav1.[…].

A further assay addresses T2, Nav1.6 (Homo sapiens, UniProt Q9UQD0).
T2 construct: gene SCN8A
Nature of the assay: whole-cell voltage-clamp in CHO cells stably expressing hNav1.[…], single concentration […].

The target in the next assay is T3, Nav1.8 (Mus musculus, UniProt Q6QIY3).
T3 construct: gene Scn10a
Put plainly: whole-cell voltage-clamp in ND7/[…] cells transiently expressing mNav1.[…], single concentration […].

T2 sequence (Q9UQD0 whole entry): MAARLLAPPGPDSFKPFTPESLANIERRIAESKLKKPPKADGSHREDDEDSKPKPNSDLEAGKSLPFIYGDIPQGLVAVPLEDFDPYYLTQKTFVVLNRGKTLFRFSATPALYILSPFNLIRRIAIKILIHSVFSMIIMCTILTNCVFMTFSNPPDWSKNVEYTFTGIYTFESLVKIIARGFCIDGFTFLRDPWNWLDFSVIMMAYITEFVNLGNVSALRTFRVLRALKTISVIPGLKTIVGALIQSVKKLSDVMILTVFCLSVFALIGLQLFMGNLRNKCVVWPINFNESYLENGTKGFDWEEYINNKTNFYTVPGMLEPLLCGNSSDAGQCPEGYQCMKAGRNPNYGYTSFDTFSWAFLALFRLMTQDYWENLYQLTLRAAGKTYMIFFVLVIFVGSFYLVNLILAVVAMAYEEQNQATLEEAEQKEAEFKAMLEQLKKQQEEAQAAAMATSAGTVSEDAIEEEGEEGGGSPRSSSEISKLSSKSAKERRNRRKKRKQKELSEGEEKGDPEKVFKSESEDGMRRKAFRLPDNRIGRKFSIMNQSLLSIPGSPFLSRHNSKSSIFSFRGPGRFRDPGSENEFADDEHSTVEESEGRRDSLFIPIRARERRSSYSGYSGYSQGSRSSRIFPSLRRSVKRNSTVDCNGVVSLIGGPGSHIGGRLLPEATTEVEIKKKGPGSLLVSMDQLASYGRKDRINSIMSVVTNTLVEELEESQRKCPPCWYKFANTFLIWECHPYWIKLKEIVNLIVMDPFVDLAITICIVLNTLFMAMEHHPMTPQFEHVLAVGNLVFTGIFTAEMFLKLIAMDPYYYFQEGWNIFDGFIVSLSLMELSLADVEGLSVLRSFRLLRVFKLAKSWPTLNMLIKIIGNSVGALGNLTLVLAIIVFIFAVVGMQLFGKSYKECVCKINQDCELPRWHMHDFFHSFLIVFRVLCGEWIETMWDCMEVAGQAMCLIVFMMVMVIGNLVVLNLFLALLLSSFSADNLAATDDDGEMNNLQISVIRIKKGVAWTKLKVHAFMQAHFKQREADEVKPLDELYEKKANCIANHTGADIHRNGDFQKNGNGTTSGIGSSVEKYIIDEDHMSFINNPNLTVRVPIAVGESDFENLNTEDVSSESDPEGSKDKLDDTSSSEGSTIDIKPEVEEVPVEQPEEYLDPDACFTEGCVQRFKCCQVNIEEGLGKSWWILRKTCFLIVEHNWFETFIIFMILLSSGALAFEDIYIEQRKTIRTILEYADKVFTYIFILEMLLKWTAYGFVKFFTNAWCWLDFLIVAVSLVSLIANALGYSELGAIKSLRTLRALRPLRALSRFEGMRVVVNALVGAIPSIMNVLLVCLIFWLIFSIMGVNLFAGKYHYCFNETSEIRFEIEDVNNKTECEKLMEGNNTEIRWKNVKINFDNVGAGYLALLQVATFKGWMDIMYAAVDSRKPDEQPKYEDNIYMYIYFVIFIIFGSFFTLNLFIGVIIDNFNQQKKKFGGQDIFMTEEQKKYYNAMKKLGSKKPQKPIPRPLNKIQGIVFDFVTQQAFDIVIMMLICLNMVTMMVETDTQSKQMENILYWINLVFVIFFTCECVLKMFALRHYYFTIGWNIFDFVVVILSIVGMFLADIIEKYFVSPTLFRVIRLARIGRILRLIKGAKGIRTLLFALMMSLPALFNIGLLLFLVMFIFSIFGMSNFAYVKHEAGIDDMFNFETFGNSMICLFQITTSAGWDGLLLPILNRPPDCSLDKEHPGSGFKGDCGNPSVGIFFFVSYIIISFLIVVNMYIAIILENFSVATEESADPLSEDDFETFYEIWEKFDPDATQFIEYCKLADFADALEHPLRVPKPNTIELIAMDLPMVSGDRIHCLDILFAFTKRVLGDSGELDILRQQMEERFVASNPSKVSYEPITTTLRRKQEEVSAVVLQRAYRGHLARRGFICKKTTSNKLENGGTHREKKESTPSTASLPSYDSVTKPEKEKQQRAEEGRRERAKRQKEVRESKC
T1 sequence (Q15858 whole entry): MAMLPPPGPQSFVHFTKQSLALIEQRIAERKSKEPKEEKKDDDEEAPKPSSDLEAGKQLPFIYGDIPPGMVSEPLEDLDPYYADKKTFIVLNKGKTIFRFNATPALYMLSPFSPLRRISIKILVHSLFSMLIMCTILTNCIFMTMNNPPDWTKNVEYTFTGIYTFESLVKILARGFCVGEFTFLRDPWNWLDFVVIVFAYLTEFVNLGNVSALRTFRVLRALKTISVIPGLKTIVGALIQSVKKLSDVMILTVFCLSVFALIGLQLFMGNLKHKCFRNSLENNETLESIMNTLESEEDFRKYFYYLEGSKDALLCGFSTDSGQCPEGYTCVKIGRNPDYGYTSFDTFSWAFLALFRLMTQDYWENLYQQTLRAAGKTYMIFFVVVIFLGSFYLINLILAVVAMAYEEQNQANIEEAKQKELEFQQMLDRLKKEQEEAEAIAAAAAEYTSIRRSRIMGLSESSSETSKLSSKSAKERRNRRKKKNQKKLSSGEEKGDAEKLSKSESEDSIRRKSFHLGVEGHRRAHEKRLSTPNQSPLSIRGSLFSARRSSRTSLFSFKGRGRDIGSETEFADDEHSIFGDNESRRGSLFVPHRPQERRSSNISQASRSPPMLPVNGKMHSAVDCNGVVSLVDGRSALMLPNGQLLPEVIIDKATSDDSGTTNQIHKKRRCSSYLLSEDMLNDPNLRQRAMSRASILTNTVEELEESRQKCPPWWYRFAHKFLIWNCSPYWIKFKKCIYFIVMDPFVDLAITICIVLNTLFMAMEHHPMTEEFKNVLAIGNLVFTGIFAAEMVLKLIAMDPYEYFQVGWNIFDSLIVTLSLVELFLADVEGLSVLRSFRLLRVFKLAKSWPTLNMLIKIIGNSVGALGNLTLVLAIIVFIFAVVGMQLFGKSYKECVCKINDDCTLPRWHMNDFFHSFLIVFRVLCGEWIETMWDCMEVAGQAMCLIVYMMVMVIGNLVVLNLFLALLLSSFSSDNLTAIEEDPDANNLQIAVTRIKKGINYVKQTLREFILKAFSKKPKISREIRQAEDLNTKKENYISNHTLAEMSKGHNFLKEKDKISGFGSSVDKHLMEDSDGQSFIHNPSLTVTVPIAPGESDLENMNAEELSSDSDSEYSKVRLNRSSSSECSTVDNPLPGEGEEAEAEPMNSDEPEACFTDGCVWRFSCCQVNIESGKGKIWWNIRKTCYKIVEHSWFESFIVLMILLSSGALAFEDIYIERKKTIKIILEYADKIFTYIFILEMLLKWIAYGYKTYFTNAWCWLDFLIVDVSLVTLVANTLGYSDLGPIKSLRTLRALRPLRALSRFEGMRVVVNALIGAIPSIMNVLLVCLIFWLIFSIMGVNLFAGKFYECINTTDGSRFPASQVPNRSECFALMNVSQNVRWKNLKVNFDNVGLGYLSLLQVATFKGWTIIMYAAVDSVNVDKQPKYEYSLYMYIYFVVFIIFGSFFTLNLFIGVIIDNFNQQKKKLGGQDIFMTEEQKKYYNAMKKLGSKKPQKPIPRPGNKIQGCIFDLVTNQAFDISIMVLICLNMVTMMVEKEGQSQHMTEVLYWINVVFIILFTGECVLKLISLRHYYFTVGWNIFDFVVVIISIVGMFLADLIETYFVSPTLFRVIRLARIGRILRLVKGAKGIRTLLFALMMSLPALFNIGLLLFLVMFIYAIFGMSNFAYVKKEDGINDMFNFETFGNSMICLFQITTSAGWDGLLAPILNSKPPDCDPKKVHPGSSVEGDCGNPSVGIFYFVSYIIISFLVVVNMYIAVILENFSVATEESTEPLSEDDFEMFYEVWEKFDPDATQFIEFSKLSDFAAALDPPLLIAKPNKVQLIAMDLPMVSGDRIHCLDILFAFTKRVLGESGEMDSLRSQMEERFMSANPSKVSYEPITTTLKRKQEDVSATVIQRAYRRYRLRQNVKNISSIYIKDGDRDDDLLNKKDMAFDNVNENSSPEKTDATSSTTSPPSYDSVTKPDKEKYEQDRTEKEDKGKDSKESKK

Consider `COc1cc(-c2coc3cc(O)cc(O)c3c2=O)ccc1O` [3’-O-methylorobol], for which, on Nav1.7, the IC50 (commonly the midpoint of a concentration-inhibition curve) stood at 3.46 µM. In addition, the inhibition (in general, the drop in the measured response relative to a control, in per cent) at 10 µM on Nav1.6 came to 39%; against Nav1.8, 23%.
